Laboratory results reported in US11542508B2, “Isolated polynucleotides and polypeptides and methods of using same for expressing an expression product of interest” (priority 2016, dated 2023).
“Also recorded” adds a separate entry of the source.

Key:
phi3T = experiment: Growth dynamics of phage-infected cultures (phi3T infection of B. subtilis 168); assay type: cell-based; details: B. subtilis 168 infected by phi3T at MOI=0.1, LB supplemented with synthesized peptide
Experimental: Specifically, overnight cultures of B. subtilis strain 168 were diluted 1:50 in LB media supplemented with 0.1 mM MnCl2 and 5 mM MgCl2, and incubated at 37° C. with shaking until reaching optical density (O.D) 600 nm=0.5. Phages (phi29, phi105, rho14 or phi3T) were added to the bacterial culture at MOI=1 and incubated for 3 hours. The media were centrifuged at 4000 rpm for 10 minutes at 4° C. and the supernatant was filtered with 0.2 μm filer (GE Healthcare Life Sciences, Whatman, CAT #10462200). Phages and large molecules were further filtered out from the media by using Amicon Ultra centrifugal filters at a cutoff of 3,000 NMWL (3 kDa) (Milipore, CAT #UFC900324). A plaque assay was performed in order to verify that no phages were left in the medium.
7.5 mg (per reaction) of Proteinase K-Agarose from Tritirachium album (Sigma, CAT #P9290) were washed twice with 750 μl of sterile water and then resuspended with 750 μl of LB supplemented with 0.1 mM MnCl2 and 5 mM MgCl2. Following, the tubes were centrifuged again and the supernatant was discarded. 1.5 ml of phi3T-derived conditioned medium or control medium was added to a tube containing the washed proteinase K. The media were incubated for 2 hours at 37° C. with the proteinase K. The media were centrifuged and the supernatants were collected for the infection assay.
(§1) Overnight cultures of bacteria were diluted 1:100 in LB media and incubated at 37° C. with shaking until reaching O.D 600 nm=0.1. The bacterial culture was centrifuged at 4000 rpm for 10 minutes at room temperature. The supernatant was discarded and the pellet was resuspended in LB medium supplemented with 0.1 mM MnCl2 and 5 mM MgCl2 at 10% of the initial volume. The concentrated bacterial culture was added to conditioned medium or medium supplemented with synthesized arbitrium peptide in a ratio of 1:9 (bacteria to medium) and incubated for 1 hour at room temperature. Following, the culture was infected with phages at MOI=0.1. Optical density measurements at a wavelength of 600 nm were taken using a TECAN Infinite 200 plate reader in a 96-wells plate.

AimR = biological target: T1, AimR (Bacillus phage phi3T, UniProt P0DOE3); experiment: Analytical gel filtration of purified AimR (oligomeric state); details: AimR:SAIRGA 1:2, AimR:GMPRGA 1:1 molar ratio
T1 construct: made in house; host or cells: E. coli BL21(DE3), pET28a
T1 sequence (P0DOE3 whole entry, looked up): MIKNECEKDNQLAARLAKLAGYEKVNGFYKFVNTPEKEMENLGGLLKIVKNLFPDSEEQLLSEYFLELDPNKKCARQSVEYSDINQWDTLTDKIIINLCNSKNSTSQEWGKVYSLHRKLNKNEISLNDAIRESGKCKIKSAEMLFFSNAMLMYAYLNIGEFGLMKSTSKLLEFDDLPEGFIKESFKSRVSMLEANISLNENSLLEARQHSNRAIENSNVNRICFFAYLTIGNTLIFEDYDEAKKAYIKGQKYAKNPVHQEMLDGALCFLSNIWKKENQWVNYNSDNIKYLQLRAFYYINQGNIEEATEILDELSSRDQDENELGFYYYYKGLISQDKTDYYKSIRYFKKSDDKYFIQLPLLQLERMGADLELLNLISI
Experimental: Following, AimR was expressed in E. coli BL21(DE3) cells with a C-terminal 6× His-tag. Expression was performed at 15° C. for about ˜18 hours using 200 μM IPTG (Isopropyl β-D-1-thiogalactopyranoside) as an inducer. The cells pellet was resuspended in lysis buffer [50 mM Tris pH 8, 0.3M NaCl, 20 mM Imidazole, 2 mM DTT, 0.2 mg/ml Lysozyme, 1 μg/ml DNAse, protease inhibitor cocktail (Calbiochem)], disrupted by a cell disrupter at 4° C. and clarified at 15,000 g for 30 minutes. The clarified lysate was loaded onto a HisTrap_FF_5 ml column (GE Healthcare) and washed with buffer containing 50 mM Tris pH 8, 0.3 M NaCl, 20 mM imidazole and 2 mM DTT. AimR was eluted from the column in one step with the same buffer containing 0.5 M imidazole. Fractions containing AimR were pooled and injected to a size exclusion column (HiLoad_16/60_Superdex_200_prepgrade,GE_Healthcare) equilibrated with 20 mM Tris pH 8, 0.3 M NaCl, 2 mM TCEP. Fractions containing pure AimR were pooled and flash frozen in aliquots using liquid nitrogen.
Pure AimR was injected to an analytical gel filtration column (Superdex_200_Increase_10/30 GL, GE Healthcare) equilibrated with buffer containing 20 mM Tris pH 8, 0.3 M NaCl, 2 mM TCEP. […]

phi3T AimR receptor = biological target: T2, phi3T AimR receptor (Bacillus phage phi3T, UniProt P0DOE3); assay type: binding; details: AimR 200 nM, peptide 9-4000 nM
T2 construct: made in house; host or cells: E. coli BL21(DE3), pET28a
T2 sequence (P0DOE3 whole entry, looked up): T1 sequence (P0DOE3 whole entry, looked up)
Experimental: Two-step purified 6×His-tagged AimR stored in Tris/NaCl buffer (50 mM Tris pH 8.0, 150 mM NaCl, 2 mM TCEP) at −80° C. was thawed on ice and centrifuged at 21,000 g for 10 minutes at 4° C. prior to analysis. Peptides [SAIRGA (SEQ ID NO: 269) and GMPRGA (SEQ ID NO: 271)] were solubilized in 50 mM Tris-HCl pH 8.0, 150 mM NaCl to a final concentration of 100 μM. AimR was diluted to 200 nM and was incubated with 16 different peptide concentrations varying between 9-4000 nM, which were prepared in Tris/NaCl buffer containing 0.1% [v/v] Pluronic acid (NanoTemper). Roughly 3 μl were loaded into NT.LabelFree Zero-Background Premium Coated Capillaries (NanoTemper) and inserted into a Monolith NT.LabelFree device (NanoTemper). MST experiments were performed at 60% MST power (infra-red laser) and 20% LED power at 23° C. using the Monolith NT.LabelFree instrument (Nanotemper). Ratios between normalized initial fluorescence and post-temperature-jump and thermophoresis were calculated and averaged from 3 independent runs (runs were incubated for 20 minutes at room temperature before the measurement). A plot of fluorescence ratios versus peptide concentration was used to assess the binding capacity of the phage protein and its cognate peptide ligand.

spBeta = experiment: Growth dynamics of phage-infected cultures (spBeta infection of B. subtilis BEST7003); assay type: cell-based; details: B. subtilis BEST7003 infected by spBeta at MOI=0.1, LB supplemented with synthesized peptide
Experimental: as §1

Substance	effect on the phage infection dynamics (culture lysis, growth curve) (phi3T)	AimR oligomeric state (migration in gel filtration column) (AimR)	specific binding to the phi3T AimR receptor (MST) (phi3T AimR receptor)	effect on lysogeny / infection dynamics of spBeta (spBeta)
AIRGA: shorter, 5 amino acids version of the SAIRGA peptide	neither observed; also recorded: do not guide lysogeny	–	–	–
GMPRGA: predicted mature AimP-derived arbitrium peptide of spBeta	did not affect the lysogeny profile of phi3T	did not lead to a change in the AimR oligomeric state	did not show specific binding	promoted lysogeny of spBeta
PhrC: a known quorum sensing peptide of B. subtilis (ERGMT)	neither observed	–	–	–
SAIRG: shorter, 5 amino acids version of the SAIRGA peptide	neither observed; also recorded: do not guide lysogeny	–	–	–
